According to publication PMC11356900, “Synthesis, Structural Properties and Biological Activities of Novel Hydrazones of 2-, 3-, 4-Iodobenzoic Acid” (Molecules, 2024):

Columns and labels:
Test in all cases: MTT cytotoxicity assay
Type in all cases: cell-based
A549 cell line = system: A549 cell line
Method: (§1) Among all the newly synthesized compounds, four compounds designated as: 14, 20, 21 and 27 were selected for further testing of their cytotoxic properties at the doses of 10, 25, 50, 75 and 100 µM. The cytotoxic properties of the above compounds were tested on the cancer cell lines, i.e., A549 (ECACC 86012804) (non-small-cell lung cancer), T47D (ECACC 85102201) (breast cancer), HeLa (ATCC® CCL-2™) (cervical cancer) and normal line L929 (NCTC clone 929, ATCC® CCL-1™) (mouse fibroblasts) using the MTT test for 24- and 48 h cultures.
(§2) A549 (ECACC 86012804) (non-small-cell lung cancer) and T47D (ECACC 85102201) (breast cancer) were obtained from ECACC and propagated in Dulbecco’s Minimal Essential Medium, supplemented with 2 mM of glutamine, antibiotics ([…] streptomycin, 1% of 100 U/L penicillin) and 10% Fetal Bovine Serum. HeLa (ATCC® CCL-2™) (cervical cancer) and L929 (NCTC clone 929, ATCC® CCL-1™) (mouse fibroblasts) cell lines were obtained from ATCC and propagated in the Eagle Minimal Essential Medium supplemented with antibiotics ([…] streptomycin, 1% of 100 U/L penicillin) and with 10% and 5% FBS, respectively. The cell line was routinely grown in 75 cm^2 tissue culture flasks and kept in an incubator (humidified atmosphere of 5% CO2 at 37 °C). All examined cell lines were tested against mycoplasma contamination with microbiological assays.
(§3) The cell viability of tested compounds (14, 20, 21 and 27) was assessed by the MTT assay. In brief, the exponentially growing cells were plated in 100 μL/well in 96-well plates. After 24 h culturing, the cells were treated with different concentrations of compounds (range 10–100 μM). After 24 and 48 h of incubation, 10 μL of 5 mg/mL MTT was added to each well and the plates were incubated at 37 °C for additional 4 h. The medium was subsequently removed, the purple-colored precipitates of formazan were dissolved in 100 μL of DMSO. The color absorbance was recorded at 570 nm using a BioTek model EPOCH ELISA plate reader. All experiments were performed in triplicate. The absorbance values were in the range of linearity of the Lambert–Beer law.

HeLa cell line = system: HeLa cell line
Method: as §1, §2, §3

T47D cell line = system: T47D cell line
Method: as §1, §2, §3

Compound: O=C(N/N=C/c1cc(Cl)cc(I)c1O)c1cccc(I)c1 [Compound 20, N-[(5-chloro-2-hydroxy-3-iodophenyl)methylidene]-3-iodobenzohydrazide]
- cell proliferation (A549 cell line; A549, 24h, 10 µM, Repeat No 1): 87%
- cell proliferation (A549 cell line; A549, 24h, 10 µM, Repeat No 2): 92%
- cell proliferation (A549 cell line; A549, 24h, 25 µM, Repeat No 1): 83%
- cell proliferation (A549 cell line; A549, 24h, 25 µM, Repeat No 2): 91%
- cell proliferation (A549 cell line; A549, 24h, 50 µM, Repeat No 1): 83%
- cell proliferation (A549 cell line; A549, 24h, 50 µM, Repeat No 2): 87%
- cell proliferation (A549 cell line; A549, 24h, 75 µM, Repeat No 1): 91%
- cell proliferation (A549 cell line; A549, 24h, 75 µM, Repeat No 2): 95%
- cell proliferation (A549 cell line; A549, 24h, 100 µM, Repeat No 1): 90%
- cell proliferation (A549 cell line; A549, 24h, 100 µM, Repeat No 2): 93%
- cell proliferation (A549 cell line; A549, 48h, 10 µM, Repeat No 1): 88%
- cell proliferation (A549 cell line; A549, 48h, 10 µM, Repeat No 2): 84%
- cell proliferation (A549 cell line; A549, 48h, 25 µM, Repeat No 1): 79%
- cell proliferation (A549 cell line; A549, 48h, 25 µM, Repeat No 2): 83%
- cell proliferation (A549 cell line; A549, 48h, 50 µM, Repeat No 1): 88%
- cell proliferation (A549 cell line; A549, 48h, 50 µM, Repeat No 2): 92%
- cell proliferation (A549 cell line; A549, 48h, 75 µM, Repeat No 1): 99%
- cell proliferation (A549 cell line; A549, 48h, 75 µM, Repeat No 2): 95%
- cell proliferation (A549 cell line; A549, 48h, 100 µM, Repeat No 1): 91%
- cell proliferation (A549 cell line; A549, 48h, 100 µM, Repeat No 2): 93%
- cell proliferation (HeLa cell line; 24h, 10 µM, Repeat No 1): 87%
- cell proliferation (HeLa cell line; 24h, 10 µM, Repeat No 2): 92%
- cell proliferation (HeLa cell line; 24h, 25 µM, Repeat No 1): 81%
- cell proliferation (HeLa cell line; 24h, 25 µM, Repeat No 2): 88%
- cell proliferation (HeLa cell line; 24h, 50 µM, Repeat No 1): 78%
- cell proliferation (HeLa cell line; 24h, 50 µM, Repeat No 2): 83%
- cell proliferation (HeLa cell line; 24h, 75 µM, Repeat No 1): 85%
- cell proliferation (HeLa cell line; 24h, 75 µM, Repeat No 2): 91%
- cell proliferation (HeLa cell line; 24h, 100 µM, Repeat No 1): 81%
- cell proliferation (HeLa cell line; 24h, 100 µM, Repeat No 2): 79%
- cell proliferation (HeLa cell line; 48h, 10 µM, Repeat No 1): 88%
- cell proliferation (HeLa cell line; 48h, 10 µM, Repeat No 2): 91%
- cell proliferation (HeLa cell line; 48h, 25 µM, Repeat No 1): 73%
- cell proliferation (HeLa cell line; 48h, 25 µM, Repeat No 2): 75%
- cell proliferation (HeLa cell line; 48h, 50 µM, Repeat No 1): 87%
- cell proliferation (HeLa cell line; 48h, 50 µM, Repeat No 2): 91%
- cell proliferation (HeLa cell line; 48h, 75 µM, Repeat No 1): 99%
- cell proliferation (HeLa cell line; 48h, 75 µM, Repeat No 2): 96%
- cell proliferation (HeLa cell line; 48h, 100 µM, Repeat No 1): 93%
- cell proliferation (HeLa cell line; 48h, 100 µM, Repeat No 2): 94%
- cell proliferation (T47D cell line; 24h, 10 µM, Repeat No 1): 78%
- cell proliferation (T47D cell line; 24h, 10 µM, Repeat No 2): 81%
- cell proliferation (T47D cell line; 24h, 25 µM, Repeat No 1): 76%
- cell proliferation (T47D cell line; 24h, 25 µM, Repeat No 2): 72%
- cell proliferation (T47D cell line; 24h, 50 µM, Repeat No 1): 77%
- cell proliferation (T47D cell line; 24h, 50 µM, Repeat No 2): 69%
- cell proliferation (T47D cell line; 24h, 75 µM, Repeat No 1): 77%
- cell proliferation (T47D cell line; 24h, 75 µM, Repeat No 2): 73%
- cell proliferation (T47D cell line; 24h, 100 µM, Repeat No 1): 87%
- cell proliferation (T47D cell line; 24h, 100 µM, Repeat No 2): 82%
- cell proliferation (T47D cell line; 48h, 10 µM, Repeat No 1): 80%
- cell proliferation (T47D cell line; 48h, 10 µM, Repeat No 2): 78%
- cell proliferation (T47D cell line; 48h, 25 µM, Repeat No 1): 79%
- cell proliferation (T47D cell line; 48h, 25 µM, Repeat No 2): 75%
- cell proliferation (T47D cell line; 48h, 50 µM, Repeat No 1): 76%
- cell proliferation (T47D cell line; 48h, 50 µM, Repeat No 2): 73%
- cell proliferation (T47D cell line; 48h, 75 µM, Repeat No 1): 83%
- cell proliferation (T47D cell line; 48h, 75 µM, Repeat No 2): 86%
- cell proliferation (T47D cell line; 48h, 100 µM, Repeat No 1): 81%
- cell proliferation (T47D cell line; 48h, 100 µM, Repeat No 2): 79%

Compound: O=C(N/N=C/c1cc(I)cc(I)c1O)c1ccccc1I [Compound 14, N-[(3,5-diiodo-2-hydroxyphenyl)methylidene]-2-iodobenzohydrazide]
- cell proliferation (A549 cell line; A549, 24h, 10 µM, Repeat No 1): 86%
- cell proliferation (A549 cell line; A549, 24h, 10 µM, Repeat No 2): 77%
- cell proliferation (A549 cell line; A549, 24h, 25 µM, Repeat No 1): 103%
- cell proliferation (A549 cell line; A549, 24h, 25 µM, Repeat No 2): 98%
- cell proliferation (A549 cell line; A549, 24h, 50 µM, Repeat No 1): 89%
- cell proliferation (A549 cell line; A549, 24h, 50 µM, Repeat No 2): 84%
- cell proliferation (A549 cell line; A549, 24h, 75 µM, Repeat No 1): 87%
- cell proliferation (A549 cell line; A549, 24h, 75 µM, Repeat No 2): 89%
- cell proliferation (A549 cell line; A549, 24h, 100 µM, Repeat No 1): 82%
- cell proliferation (A549 cell line; A549, 24h, 100 µM, Repeat No 2): 74%
- cell proliferation (A549 cell line; A549, 48h, 10 µM, Repeat No 1): 93%
- cell proliferation (A549 cell line; A549, 48h, 10 µM, Repeat No 2): 79%
- cell proliferation (A549 cell line; A549, 48h, 25 µM, Repeat No 1): 87%
- cell proliferation (A549 cell line; A549, 48h, 25 µM, Repeat No 2): 91%
- cell proliferation (A549 cell line; A549, 48h, 50 µM, Repeat No 1): 91%
- cell proliferation (A549 cell line; A549, 48h, 50 µM, Repeat No 2): 83%
- cell proliferation (A549 cell line; A549, 48h, 75 µM, Repeat No 1): 89%
- cell proliferation (A549 cell line; A549, 48h, 75 µM, Repeat No 2): 89%
- cell proliferation (A549 cell line; A549, 48h, 100 µM, Repeat No 1): 90%
- cell proliferation (A549 cell line; A549, 48h, 100 µM, Repeat No 2): 96%
- cell proliferation (HeLa cell line; 24h, 10 µM, Repeat No 1): 88%
- cell proliferation (HeLa cell line; 24h, 10 µM, Repeat No 2): 81%
- cell proliferation (HeLa cell line; 24h, 25 µM, Repeat No 1): 93%
- cell proliferation (HeLa cell line; 24h, 25 µM, Repeat No 2): 91%
- cell proliferation (HeLa cell line; 24h, 50 µM, Repeat No 1): 88%
- cell proliferation (HeLa cell line; 24h, 50 µM, Repeat No 2): 82%
- cell proliferation (HeLa cell line; 24h, 75 µM, Repeat No 1): 98%
- cell proliferation (HeLa cell line; 24h, 75 µM, Repeat No 2): 89%
- cell proliferation (HeLa cell line; 24h, 100 µM, Repeat No 1): 82%
- cell proliferation (HeLa cell line; 24h, 100 µM, Repeat No 2): 89%
- cell proliferation (HeLa cell line; 48h, 10 µM, Repeat No 1): 76%
- cell proliferation (HeLa cell line; 48h, 10 µM, Repeat No 2): 79%
- cell proliferation (HeLa cell line; 48h, 25 µM, Repeat No 1): 82%
- cell proliferation (HeLa cell line; 48h, 25 µM, Repeat No 2): 89%
- cell proliferation (HeLa cell line; 48h, 50 µM, Repeat No 1): 85%
- cell proliferation (HeLa cell line; 48h, 50 µM, Repeat No 2): 84%
- cell proliferation (HeLa cell line; 48h, 75 µM, Repeat No 1): 77%
- cell proliferation (HeLa cell line; 48h, 75 µM, Repeat No 2): 71%
- cell proliferation (HeLa cell line; 48h, 100 µM, Repeat No 1): 81%
- cell proliferation (HeLa cell line; 48h, 100 µM, Repeat No 2): 93%
- cell proliferation (T47D cell line; 24h, 10 µM, Repeat No 1): 86%
- cell proliferation (T47D cell line; 24h, 10 µM, Repeat No 2): 89%
- cell proliferation (T47D cell line; 24h, 25 µM, Repeat No 1): 71%
- cell proliferation (T47D cell line; 24h, 25 µM, Repeat No 2): 74%
- cell proliferation (T47D cell line; 24h, 50 µM, Repeat No 1): 79%
- cell proliferation (T47D cell line; 24h, 50 µM, Repeat No 2): 75%
- cell proliferation (T47D cell line; 24h, 75 µM, Repeat No 1): 87%
- cell proliferation (T47D cell line; 24h, 75 µM, Repeat No 2): 80%
- cell proliferation (T47D cell line; 24h, 100 µM, Repeat No 1): 79%
- cell proliferation (T47D cell line; 24h, 100 µM, Repeat No 2): 73%
- cell proliferation (T47D cell line; 48h, 10 µM, Repeat No 1): 71%
- cell proliferation (T47D cell line; 48h, 10 µM, Repeat No 2): 79%
- cell proliferation (T47D cell line; 48h, 25 µM, Repeat No 1): 81%
- cell proliferation (T47D cell line; 48h, 25 µM, Repeat No 2): 79%
- cell proliferation (T47D cell line; 48h, 50 µM, Repeat No 1): 81%
- cell proliferation (T47D cell line; 48h, 50 µM, Repeat No 2): 79%
- cell proliferation (T47D cell line; 48h, 75 µM, Repeat No 1): 72%
- cell proliferation (T47D cell line; 48h, 75 µM, Repeat No 2): 69%
- cell proliferation (T47D cell line; 48h, 100 µM, Repeat No 1): 74%
- cell proliferation (T47D cell line; 48h, 100 µM, Repeat No 2): 69%
